Assay results from patent publication US7074789B2, “Kinase inhibitors” (Amgen Inc., priority 1999, dated 2006).
Like-named read-outs stand apart in the source and are kept apart here.

Columns and labels:
Assay type in all cases: biochemical
Kdr = target: T1, Kdr (Homo sapiens, UniProt P35968); experiment: Kinase inhibition assay (33P transfer), Kdr; settings: read-out: KDR-1
T1 construct: Kinases are expressed as either kinase domains or full length constructs; made in house
Summary of the method: (§1)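 GST/His-tagged kinase (domain or full length; E. coli or baculovirus) + [33P]ATP on plates coated with poly(Glu,Tyr) 4:1 or poly(Arg,Ser) 3:1; incubate, wash 0.5% H3PO4, add scintillant, count.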

Lck = target: T2, Lck (Homo sapiens, UniProt P06239); experiment: Kinase inhibition assay (33P transfer), Lck; settings: read-out: Lck-1
T2 construct: Kinases are expressed as either kinase domains or full length constructs; made in house
Summary of the method: as §1

Zap-70 = target: T3, Zap-70 (Homo sapiens, UniProt P43403); experiment: Kinase inhibition assay (33P transfer), Zap-70; settings: read-out: Zap-1
T3 construct: Kinases are expressed as either kinase domains or full length constructs; made in house
T3 sequence (P43403 1-619): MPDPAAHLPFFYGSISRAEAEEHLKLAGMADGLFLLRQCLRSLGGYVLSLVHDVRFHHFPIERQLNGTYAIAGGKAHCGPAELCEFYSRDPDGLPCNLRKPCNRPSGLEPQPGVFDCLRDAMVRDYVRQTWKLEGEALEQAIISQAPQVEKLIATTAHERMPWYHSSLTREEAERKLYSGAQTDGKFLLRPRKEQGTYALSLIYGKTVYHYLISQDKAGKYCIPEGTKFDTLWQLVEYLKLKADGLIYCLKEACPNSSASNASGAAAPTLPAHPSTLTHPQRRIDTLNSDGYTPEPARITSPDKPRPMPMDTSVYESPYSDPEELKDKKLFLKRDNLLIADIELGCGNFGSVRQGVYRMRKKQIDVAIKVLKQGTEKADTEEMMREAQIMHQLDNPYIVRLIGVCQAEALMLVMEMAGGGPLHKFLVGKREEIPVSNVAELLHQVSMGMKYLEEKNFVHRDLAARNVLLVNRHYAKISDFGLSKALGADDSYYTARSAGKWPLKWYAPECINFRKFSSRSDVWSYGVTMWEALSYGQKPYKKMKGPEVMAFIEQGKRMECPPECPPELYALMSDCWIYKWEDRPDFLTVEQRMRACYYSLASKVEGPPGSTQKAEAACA
Summary of the method: as §1

Tek = target: T4, Tek (Homo sapiens, UniProt Q02763); experiment: Kinase inhibition assay (33P transfer), Tek; settings: read-out: Tek-1
T4 construct: Kinases are expressed as either kinase domains or full length constructs; made in house
Summary of the method: (§2)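 IC50: inhibitor concentration lowering 33P incorporation into immobilised substrate by 50%. Label transferred from ATP to poly(Glu,Tyr) 4:1 or poly(Arg,Ser) 3:1 is measured after a 0.5% phosphoric acid wash by liquid scintillation.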

IGFR-1 [1] = target: T5, IGFR-1 (Homo sapiens, UniProt P08069); experiment: Kinase inhibition assay (33P transfer), IGFR-1; settings: Table 2, kinase inhibition class
T5 construct: Kinases are expressed as either kinase domains or full length constructs; made in house

ErbB4 = target: T6, ErbB4 (Homo sapiens, UniProt Q15303); experiment: Kinase inhibition assay (33P transfer), ErbB4; settings: read-out: ErbB4-1
T6 construct: Kinases are expressed as either kinase domains or full length constructs; made in house

c-Met = target: T7, c-Met (Homo sapiens, UniProt P08581); experiment: Kinase inhibition assay (33P transfer), c-Met; settings: read-out: Met-1
T7 construct: Kinases are expressed as either kinase domains or full length constructs; made in house
Summary of the method: as §2

EGFR = target: T8, EGFR (Homo sapiens, UniProt P00533); experiment: Kinase inhibition assay (33P transfer), EGFR; settings: read-out: EGFR-1
T8 construct: Kinases are expressed as either kinase domains or full length constructs; made in house
Summary of the method: as §2

Itk = target: T9, Itk (Homo sapiens, UniProt Q08881); experiment: Kinase inhibition assay (33P transfer), Itk; settings: read-out: Itk-1
T9 construct: Kinases are expressed as either kinase domains or full length constructs; made in house
T9 sequence (Q08881 1-620): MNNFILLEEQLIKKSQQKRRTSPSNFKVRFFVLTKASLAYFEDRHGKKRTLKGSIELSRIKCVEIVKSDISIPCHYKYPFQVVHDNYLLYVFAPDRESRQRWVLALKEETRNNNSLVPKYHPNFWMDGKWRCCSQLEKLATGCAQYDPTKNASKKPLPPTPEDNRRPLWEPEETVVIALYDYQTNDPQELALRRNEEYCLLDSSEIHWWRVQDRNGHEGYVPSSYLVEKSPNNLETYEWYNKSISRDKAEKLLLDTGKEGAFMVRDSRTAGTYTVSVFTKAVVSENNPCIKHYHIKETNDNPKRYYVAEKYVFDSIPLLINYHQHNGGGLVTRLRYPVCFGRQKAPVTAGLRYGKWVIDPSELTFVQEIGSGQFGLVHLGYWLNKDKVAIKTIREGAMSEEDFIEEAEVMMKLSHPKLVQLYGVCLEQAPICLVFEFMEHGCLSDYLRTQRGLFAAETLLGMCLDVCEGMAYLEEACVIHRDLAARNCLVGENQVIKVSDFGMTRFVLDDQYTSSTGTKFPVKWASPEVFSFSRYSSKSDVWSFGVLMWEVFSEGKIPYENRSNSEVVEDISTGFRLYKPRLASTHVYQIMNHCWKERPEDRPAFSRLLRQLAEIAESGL
Summary of the method: as §2

EPHB4 = target: T10, EPHB4 (Homo sapiens, UniProt P54760); experiment: Kinase inhibition assay (33P transfer), EPHB4; settings: read-out: EPHB4-1
T10 construct: Kinases are expressed as either kinase domains or full length constructs; made in house
T10 sequence (P54760 16-987): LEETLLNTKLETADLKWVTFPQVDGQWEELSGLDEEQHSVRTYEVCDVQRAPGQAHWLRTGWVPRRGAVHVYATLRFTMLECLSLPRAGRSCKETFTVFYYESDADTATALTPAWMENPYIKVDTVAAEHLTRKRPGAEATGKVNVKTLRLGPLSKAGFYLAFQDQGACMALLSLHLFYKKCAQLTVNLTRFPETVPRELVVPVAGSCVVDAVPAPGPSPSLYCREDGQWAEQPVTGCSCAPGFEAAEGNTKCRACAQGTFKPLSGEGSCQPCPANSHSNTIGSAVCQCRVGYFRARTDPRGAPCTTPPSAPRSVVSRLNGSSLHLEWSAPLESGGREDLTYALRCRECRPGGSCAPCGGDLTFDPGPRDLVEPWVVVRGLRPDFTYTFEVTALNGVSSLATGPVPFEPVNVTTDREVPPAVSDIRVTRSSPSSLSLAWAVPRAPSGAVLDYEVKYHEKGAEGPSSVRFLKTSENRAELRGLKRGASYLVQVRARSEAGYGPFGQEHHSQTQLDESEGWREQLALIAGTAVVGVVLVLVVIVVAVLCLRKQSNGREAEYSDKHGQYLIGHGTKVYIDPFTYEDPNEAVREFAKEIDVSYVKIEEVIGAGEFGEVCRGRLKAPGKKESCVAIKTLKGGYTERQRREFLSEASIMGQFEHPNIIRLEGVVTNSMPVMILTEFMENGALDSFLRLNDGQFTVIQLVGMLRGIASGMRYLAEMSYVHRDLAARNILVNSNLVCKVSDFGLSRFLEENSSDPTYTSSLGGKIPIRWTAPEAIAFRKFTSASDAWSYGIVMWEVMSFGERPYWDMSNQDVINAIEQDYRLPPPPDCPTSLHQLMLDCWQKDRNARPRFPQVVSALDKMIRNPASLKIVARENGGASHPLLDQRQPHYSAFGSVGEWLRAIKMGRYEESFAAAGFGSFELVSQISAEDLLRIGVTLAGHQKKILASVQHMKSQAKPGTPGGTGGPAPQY

AKT = target: T11, AKT (Homo sapiens, UniProt Q9Y243); experiment: Kinase inhibition assay (33P transfer), AKT; settings: read-out: AKT3-1
T11 construct: Kinases are expressed as either kinase domains or full length constructs; made in house
Summary of the method: as §1

IGFR-1 [2] = target: T5, IGFR-1; experiment: Kinase inhibition assay (33P transfer), IGFR-1; settings: Table 2, class symbols A-E
[3] = Table 2, kinase inhibition class

T5 sequence (P08069 31-1367): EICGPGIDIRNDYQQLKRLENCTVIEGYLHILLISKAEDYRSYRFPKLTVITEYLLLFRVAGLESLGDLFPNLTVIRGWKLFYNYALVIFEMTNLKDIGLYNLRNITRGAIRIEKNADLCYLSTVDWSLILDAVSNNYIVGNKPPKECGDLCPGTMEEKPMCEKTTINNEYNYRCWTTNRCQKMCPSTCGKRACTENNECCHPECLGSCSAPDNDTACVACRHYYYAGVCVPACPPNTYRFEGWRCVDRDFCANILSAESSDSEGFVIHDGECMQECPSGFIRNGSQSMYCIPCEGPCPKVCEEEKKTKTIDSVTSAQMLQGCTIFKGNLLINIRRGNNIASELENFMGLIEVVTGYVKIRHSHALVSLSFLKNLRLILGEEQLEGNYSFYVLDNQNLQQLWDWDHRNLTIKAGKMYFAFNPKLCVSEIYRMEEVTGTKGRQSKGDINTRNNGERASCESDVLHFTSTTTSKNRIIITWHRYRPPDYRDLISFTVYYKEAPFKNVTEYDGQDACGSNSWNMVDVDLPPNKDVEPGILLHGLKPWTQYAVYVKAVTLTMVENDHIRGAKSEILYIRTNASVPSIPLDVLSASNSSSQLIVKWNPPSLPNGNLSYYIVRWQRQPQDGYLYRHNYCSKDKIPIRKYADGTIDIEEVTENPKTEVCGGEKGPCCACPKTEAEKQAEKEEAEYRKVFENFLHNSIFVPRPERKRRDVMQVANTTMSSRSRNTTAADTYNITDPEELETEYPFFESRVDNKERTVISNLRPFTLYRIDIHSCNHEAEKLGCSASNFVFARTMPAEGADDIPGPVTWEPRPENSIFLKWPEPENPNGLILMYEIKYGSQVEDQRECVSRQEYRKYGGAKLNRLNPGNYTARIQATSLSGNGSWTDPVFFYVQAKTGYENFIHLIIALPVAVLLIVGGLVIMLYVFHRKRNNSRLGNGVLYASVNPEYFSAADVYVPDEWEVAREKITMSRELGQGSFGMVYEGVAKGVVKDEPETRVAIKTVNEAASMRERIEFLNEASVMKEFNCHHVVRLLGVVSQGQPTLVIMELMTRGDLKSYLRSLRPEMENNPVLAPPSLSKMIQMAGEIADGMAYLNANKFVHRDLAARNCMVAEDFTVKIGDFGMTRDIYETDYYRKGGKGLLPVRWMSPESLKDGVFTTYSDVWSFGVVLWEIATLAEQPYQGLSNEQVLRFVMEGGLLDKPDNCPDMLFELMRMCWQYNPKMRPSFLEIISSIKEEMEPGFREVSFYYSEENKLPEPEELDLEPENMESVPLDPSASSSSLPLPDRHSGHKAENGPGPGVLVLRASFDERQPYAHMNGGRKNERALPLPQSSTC
T8 sequence (P00533 25-1210, species assumed): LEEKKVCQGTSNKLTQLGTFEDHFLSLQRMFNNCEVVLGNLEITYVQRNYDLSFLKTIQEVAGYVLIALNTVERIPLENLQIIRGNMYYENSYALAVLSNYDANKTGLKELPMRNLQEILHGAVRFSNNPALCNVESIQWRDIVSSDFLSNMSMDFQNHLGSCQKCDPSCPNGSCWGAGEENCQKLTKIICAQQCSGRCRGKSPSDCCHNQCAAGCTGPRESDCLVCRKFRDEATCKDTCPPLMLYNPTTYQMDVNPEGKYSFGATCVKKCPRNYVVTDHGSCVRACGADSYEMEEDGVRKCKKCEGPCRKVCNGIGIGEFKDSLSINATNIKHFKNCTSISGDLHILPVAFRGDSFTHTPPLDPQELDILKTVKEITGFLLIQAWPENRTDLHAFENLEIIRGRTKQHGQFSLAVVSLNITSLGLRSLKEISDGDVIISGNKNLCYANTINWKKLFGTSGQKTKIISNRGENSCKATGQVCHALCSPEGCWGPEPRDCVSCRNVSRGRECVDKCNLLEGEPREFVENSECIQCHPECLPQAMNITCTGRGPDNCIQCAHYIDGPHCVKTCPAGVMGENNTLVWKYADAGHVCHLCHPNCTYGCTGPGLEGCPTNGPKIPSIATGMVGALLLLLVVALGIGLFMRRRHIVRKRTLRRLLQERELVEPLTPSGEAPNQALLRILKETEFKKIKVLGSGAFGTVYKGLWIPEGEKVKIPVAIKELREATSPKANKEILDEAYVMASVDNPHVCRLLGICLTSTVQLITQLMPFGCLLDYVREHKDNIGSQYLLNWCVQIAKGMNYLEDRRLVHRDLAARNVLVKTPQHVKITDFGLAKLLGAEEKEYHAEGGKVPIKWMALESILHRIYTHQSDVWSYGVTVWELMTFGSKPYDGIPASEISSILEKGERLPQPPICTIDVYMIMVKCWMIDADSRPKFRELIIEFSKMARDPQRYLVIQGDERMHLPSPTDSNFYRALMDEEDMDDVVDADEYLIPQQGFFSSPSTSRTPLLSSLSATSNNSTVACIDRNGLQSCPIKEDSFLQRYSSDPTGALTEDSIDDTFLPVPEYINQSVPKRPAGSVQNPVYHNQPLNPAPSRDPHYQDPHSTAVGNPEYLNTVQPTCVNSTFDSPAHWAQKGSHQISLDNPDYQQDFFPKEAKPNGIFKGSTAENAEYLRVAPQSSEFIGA
T2 sequence (P06239 whole entry, species assumed, the tested form may be a part): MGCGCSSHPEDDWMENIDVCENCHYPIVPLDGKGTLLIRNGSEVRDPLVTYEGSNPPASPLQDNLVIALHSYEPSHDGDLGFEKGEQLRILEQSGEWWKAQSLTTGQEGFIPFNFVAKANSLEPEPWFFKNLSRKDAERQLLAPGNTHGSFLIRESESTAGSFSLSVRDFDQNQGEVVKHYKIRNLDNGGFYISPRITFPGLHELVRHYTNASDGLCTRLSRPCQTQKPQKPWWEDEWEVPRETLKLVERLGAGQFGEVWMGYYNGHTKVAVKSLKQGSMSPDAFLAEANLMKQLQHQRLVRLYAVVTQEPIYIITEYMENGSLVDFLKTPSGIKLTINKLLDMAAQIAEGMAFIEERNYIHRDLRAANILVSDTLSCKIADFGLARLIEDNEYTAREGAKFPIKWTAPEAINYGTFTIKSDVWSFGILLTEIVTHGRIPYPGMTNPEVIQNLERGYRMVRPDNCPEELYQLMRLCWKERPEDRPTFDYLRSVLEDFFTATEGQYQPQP
T7 sequence (P08581 25-1390): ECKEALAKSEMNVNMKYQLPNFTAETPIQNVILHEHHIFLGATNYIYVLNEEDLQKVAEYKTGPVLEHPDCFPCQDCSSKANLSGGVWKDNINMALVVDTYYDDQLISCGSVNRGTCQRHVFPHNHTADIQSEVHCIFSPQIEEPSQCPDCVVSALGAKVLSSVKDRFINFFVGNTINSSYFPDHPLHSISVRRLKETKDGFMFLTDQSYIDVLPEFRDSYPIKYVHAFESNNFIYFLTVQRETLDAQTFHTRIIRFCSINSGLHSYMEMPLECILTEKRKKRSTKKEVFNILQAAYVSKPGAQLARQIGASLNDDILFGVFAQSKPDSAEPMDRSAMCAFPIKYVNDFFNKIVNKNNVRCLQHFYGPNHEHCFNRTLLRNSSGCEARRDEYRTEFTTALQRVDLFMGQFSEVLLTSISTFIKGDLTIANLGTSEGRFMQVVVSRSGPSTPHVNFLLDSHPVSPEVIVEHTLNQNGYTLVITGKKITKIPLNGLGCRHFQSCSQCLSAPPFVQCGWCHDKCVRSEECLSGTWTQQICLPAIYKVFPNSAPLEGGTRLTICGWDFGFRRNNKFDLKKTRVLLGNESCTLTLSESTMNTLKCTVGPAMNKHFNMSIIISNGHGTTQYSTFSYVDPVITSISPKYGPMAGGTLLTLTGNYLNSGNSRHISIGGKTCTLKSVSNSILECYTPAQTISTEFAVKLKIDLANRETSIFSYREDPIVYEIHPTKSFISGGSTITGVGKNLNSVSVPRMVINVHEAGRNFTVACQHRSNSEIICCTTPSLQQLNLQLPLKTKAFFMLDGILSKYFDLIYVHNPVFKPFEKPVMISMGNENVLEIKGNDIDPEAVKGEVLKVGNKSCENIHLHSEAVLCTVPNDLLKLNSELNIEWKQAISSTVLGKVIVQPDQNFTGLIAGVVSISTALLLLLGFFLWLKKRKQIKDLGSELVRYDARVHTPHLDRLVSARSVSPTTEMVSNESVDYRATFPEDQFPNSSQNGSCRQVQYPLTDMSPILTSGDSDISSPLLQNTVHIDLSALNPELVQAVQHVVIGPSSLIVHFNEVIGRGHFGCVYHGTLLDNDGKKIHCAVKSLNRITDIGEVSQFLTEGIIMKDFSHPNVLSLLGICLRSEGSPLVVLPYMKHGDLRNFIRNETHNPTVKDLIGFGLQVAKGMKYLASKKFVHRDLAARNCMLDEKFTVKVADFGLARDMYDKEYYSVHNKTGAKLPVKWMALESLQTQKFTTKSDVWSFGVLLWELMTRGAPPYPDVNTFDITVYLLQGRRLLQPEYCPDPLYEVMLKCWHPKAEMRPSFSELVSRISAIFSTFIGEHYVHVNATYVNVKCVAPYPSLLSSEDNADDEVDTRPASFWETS
T11 sequence (Q9Y243 whole entry, the tested form may be a part): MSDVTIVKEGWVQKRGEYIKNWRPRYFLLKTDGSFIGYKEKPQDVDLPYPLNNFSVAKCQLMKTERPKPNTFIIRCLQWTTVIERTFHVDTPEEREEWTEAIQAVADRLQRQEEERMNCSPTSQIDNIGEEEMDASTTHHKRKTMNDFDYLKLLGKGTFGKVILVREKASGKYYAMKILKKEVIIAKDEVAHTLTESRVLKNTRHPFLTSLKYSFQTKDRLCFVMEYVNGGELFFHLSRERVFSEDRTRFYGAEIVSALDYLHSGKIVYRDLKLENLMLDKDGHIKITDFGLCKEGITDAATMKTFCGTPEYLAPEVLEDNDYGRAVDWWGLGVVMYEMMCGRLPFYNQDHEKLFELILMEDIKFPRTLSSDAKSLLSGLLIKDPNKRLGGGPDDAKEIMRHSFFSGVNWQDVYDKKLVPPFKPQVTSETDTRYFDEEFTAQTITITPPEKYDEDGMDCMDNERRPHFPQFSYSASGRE

| SMILES | IC50 (Kdr; Table 3) [µM] | IC50 (Lck; Table 3) [µM] | IC50 (Zap-70; Table 3) [µM] | IC50 (Tek) [µM] | IC50 (IGFR-1 [1]) [µM] | IC50 (ErbB4) [µM] | IC50 (c-Met; [3]) [µM] | IC50 (EGFR; [3]) [µM] | IC50 (Itk; Table 3) [µM] | IC50 (EPHB4) [µM] | IC50 (AKT; [3]) [µM] | IC50 (Kdr; Table 3, class symbols) [µM] | IC50 (Lck; Table 3, class symbols) [µM] | IC50 (Zap-70; Table 3, class symbols) [µM] | IC50 (c-Met; Table 2, class symbols A-E) [µM] | IC50 (EGFR; Table 2, class symbols A-E) [µM] | IC50 (Itk; Table 3, class symbols) [µM] | IC50 (AKT; Table 2, class symbols A-E) [µM] | IC50 (IGFR-1 [2]) [µM] |
| --- | --- | --- | --- | --- | --- | --- | --- | --- | --- | --- | --- | --- | --- | --- | --- | --- | --- | --- | --- |
| COc1cc(Nc2ncnc(Nc3cc(C)ccc3C)n2)cc(OC)c1OC [Compound 932] | < 1.05 | 1.05 to 6.29 | > 11.8 | 6.29 to 9.18 | 1.05 to 6.29 | 1.05 to 6.29 | 6.29 to 9.18 | 1.05 to 6.29 | > 11.8 | > 11.8 | > 11.8 |  |  |  |  |  |  |  |  |
| COC(=O)c1cccc(Nc2ncnc(-n3c(Cl)nc4ccccc43)n2)c1 [Compound 1066] |  |  |  |  |  |  |  |  |  |  |  | 6.3 to 9.19 | > 11.8 | > 11.8 | 6.3 to 9.19 | 6.3 to 9.19 | > 11.8 | 6.3 to 9.19 | > 11.8 |
| COc1cc(Nc2ncnc(N(CCC(C)C)c3ccc(Cl)cc3)n2)cc(OC)c1OC [Compound 51] | 0.873 to 5.24 | 0.873 to 5.24 | > 9.83 | 0.873 to 5.24 | > 9.83 | 5.24 to 7.64 | 0.873 to 5.24 | < 0.873 | > 9.83 | 0.873 to 5.24 | > 9.83 |  |  |  |  |  |  |  |  |
| COc1ccc(Nc2ncnc(Nc3ccccc3C)n2)cc1OC [Compound 111] | 1.19 to 7.11 | 1.19 to 7.11 | > 13.3 | > 13.3 | < 1.19 | > 13.3 | > 13.3 | < 1.19 | > 13.3 | > 13.3 | > 13.3 |  |  |  |  |  |  |  |  |
| Cc1ccc2c(c1)CCCN2c1ncnc(NCc2ccc(C(=O)O)cc2)n1 [Compound 853] |  |  |  |  |  |  |  |  |  |  |  | > 12 | > 12 | > 12 | > 12 | > 12 | > 12 | > 12 | > 12 |
| COc1ccc(Nc2ncnc(N(C)c3ccccc3OC(F)(F)F)n2)cc1OC [Compound 867] |  |  |  |  |  |  |  |  |  |  |  | 8.31 to 10.7 | 0.949 to 5.7 | > 10.7 | < 0.949 | 0.949 to 5.7 | > 10.7 | 0.949 to 5.7 | > 10.7 |
| COc1ccc(Nc2ncnc(Nc3ccc(OCc4ccccc4)cc3)n2)cc1OC [Compound 157] | 0.931 to 5.59 | > 10.5 | 5.59 to 8.15 | 5.59 to 8.15 | > 10.5 | > 10.5 | 8.15 to 10.5 | 0.931 to 5.59 | > 10.5 | 0.931 to 5.59 | 8.15 to 10.5 |  |  |  |  |  |  |  |  |
